US20060058328A1, “Use of N-aryl diazaspiracyclic compounds in the treatment of addiction” (priority 2004, published 2006)

Experiments:
[1] = target: α4β2 subtype (Homo sapiens, UniProt P17787+P43681); assay: In vitro pharmacology: antagonism at the α4β2 subtype; format: biochemical
From the text: (§1) Such disorders include substance abuse, tobacco use and weight gain that accompanies drug cessation.

[2] = tested on: NNR subtypes affecting dopamine release; assay: Antagonism of dopamine release; format: biochemical; conditions: in vitro
Description: Dopamine release was measured using the techniques described in U.S. Pat. No. 5,597,919 to Dull et al. Release is expressed as a percentage of release obtained with a concentration of (S)-(−)-nicotine resulting in maximal effects. Reported EC50 values are expressed in nM, and Emax values represent the amount released relative to (S)-(−)-nicotine on a percentage basis.
Antagonism of dopamine release can also be evaluated using the assays described in Gradyet al., “Characterization of nicotinic receptor mediated [3H]dopamine release from synaptosomes prepared from mouse striatum,” J. Neurochem. 59: 848-856 (1992) and Soliakov and Wonnacott, “Voltage-sensitive Ca^2+ channels involved in nicotinic receptor-mediated [3H]dopamine release from rat striatal synaptosomes,” J. Neurochem. 67:163-170 (1996).
as §1

[3] = tested on: rats; assay: Fourteen-day preclinical safety pharmacology study; format: in vivo

Sequence of α4β2 subtype (P43681 29-627 limits assumed): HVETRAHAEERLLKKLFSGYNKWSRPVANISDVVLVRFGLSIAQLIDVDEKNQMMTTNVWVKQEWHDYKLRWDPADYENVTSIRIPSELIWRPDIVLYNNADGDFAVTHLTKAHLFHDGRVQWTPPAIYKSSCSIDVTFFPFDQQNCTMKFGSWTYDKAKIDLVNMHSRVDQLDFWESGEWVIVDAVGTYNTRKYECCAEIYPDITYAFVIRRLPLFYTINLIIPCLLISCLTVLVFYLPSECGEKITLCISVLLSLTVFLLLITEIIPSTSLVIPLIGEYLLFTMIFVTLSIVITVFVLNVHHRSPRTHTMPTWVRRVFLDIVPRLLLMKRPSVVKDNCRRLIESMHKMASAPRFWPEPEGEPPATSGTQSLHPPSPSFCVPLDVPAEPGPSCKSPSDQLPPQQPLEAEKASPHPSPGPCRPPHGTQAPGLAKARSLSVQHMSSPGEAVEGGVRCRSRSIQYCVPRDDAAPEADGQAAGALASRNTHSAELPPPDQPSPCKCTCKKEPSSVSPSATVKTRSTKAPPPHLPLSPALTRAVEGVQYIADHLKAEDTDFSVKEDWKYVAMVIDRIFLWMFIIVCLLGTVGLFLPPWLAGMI
Sequence of α4β2 subtype (P17787 26-502): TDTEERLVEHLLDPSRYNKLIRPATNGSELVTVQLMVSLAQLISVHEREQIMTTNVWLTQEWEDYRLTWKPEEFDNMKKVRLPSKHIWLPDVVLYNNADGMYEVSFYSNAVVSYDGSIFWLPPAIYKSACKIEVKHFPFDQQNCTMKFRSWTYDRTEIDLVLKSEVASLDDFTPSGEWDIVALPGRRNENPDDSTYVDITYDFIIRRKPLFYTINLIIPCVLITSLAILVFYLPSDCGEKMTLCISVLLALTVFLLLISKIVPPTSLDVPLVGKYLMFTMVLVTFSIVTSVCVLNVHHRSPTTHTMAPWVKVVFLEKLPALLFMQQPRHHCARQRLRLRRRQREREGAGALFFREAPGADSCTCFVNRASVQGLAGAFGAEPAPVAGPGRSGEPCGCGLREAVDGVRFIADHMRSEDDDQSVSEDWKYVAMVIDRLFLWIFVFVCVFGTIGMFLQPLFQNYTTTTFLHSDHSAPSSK

- Imax, antagonist at the α4β2 subtype [1]: 50%
- IC50 ([1]; read-out: IC50, antagonist at the α4β2 subtype): 193 µM
- IC50 ([2]; read-out: IC50, antagonist at NNR subtypes affecting dopamine release): 0.901 µM
Structure (SMILES): Cl.Cl.c1cncc(N2CCC3(CCCN3)C2)c1 (stereo not drawn) [Sample 1, 7-(3-pyridyl)-1,7-diazaspiro[4.4]nonane dihydrochloride]
- Imax, antagonist at NNR subtypes affecting dopamine release [2]: 67%
- stimulant sensitization properties [3]: without demonstrating stimulant sensitization properties
- weight gain in rats [3]: reduced weight gain
